# Patent publication US20230310441A1, “TREATMENT FOR SCHIZOPHRENIA” (TAKEDA PHARMACEUTICAL COMPANY, priority 2020, published 2023)
# Marks after values point to notes of the source that are not given here.
# System: endogenous dopamine release in the human brain
# Experiment: [^11C]PHNO PET of endogenous dopamine release after d-AMPH challenge
# Type: in vivo
# Conditions: for effect on [^11C]PHNO BPND: d-AMPH 0.5 mg/kg single oral dose, all ROI; for ΔBPND^AMPH Mean (SD), Ca / ΔBPND^AMPH Mean (SD), GP / ΔBPND^AMPH Mean (SD), Pu / ΔBPND^AMPH Mean (SD), SN / ΔBPND^AMPH Mean (SD), VSt: d-AMPH only scan
# Description: A T1-weighted magnetic resonance imaging (MRI) scan of the brain, performed at screening, was used to obtain anatomical information required for PET data analysis. Each subject underwent three [^11C]PHNO PET scans, one at baseline, the second approximately 3 h after a single oral dose of dex-amphetamine (d-AMPH, 0.5 mg/kg), and the third approximately 5 h after a single oral dose of Compound (I) (20 or 40 mg) and 3 h after an oral dose of dex-amphetamine (d-APMH) (0.5 mg/kg) (FIG. 2).
# Subjects were positioned in the PET scanner, after the insertion of a venous cannula in an antecubital or forearm vein. Soft padding and head restraints were used to minimize head movement during data acquisition. All dynamic [^11C]PHNO PET scans were acquired on Siemens Biograph 6 PET/CT scanners (Hi-Rez (PET/CT1) or a TruePoint with TrueV, Siemens Healthcare, Erlangen, Germany). All scans for a particular subject were acquired on the same scanner. A low-dose computed tomography (CT) scan was performed immediately before each PET study to estimate signal attenuation. Following an intravenous bolus injection of [^11C]PHNO, dynamic emission data were acquired for 90 min in 26 frames of increasing duration. The dynamic images were reconstructed using Fourier rebinning and a 2D filtered discrete inverse Fourier transform algorithm with 5 mm isotropic Gaussian filter on a 128×128 matrix with 2.6 zoom giving 2 mm isotropic voxels. Appropriate corrections were applied for attenuation, randoms, and scatter.
# The primary set of ROIs defined were the ventral striatum (VSt), putamen (Pu) and cerebellum. […] The cerebellum was used as a reference region. An additional set of ROIs including the caudate nucleus (Ca), globus pallidus (GP) and substantia nigra (SN) was also evaluated.
# Regional TAC data extracted from the PET images were fitted using a basis function implementation of the SRTM (Gunn et al., 1997) to estimate the binding potential relative to the non-displaceable component (BPND) for each PET scan, as a measure of specific binding (Innis et al., 2007).
# Reduction in [^11C]-PHNO specific binding following a d-AMPH challenge (ΔBPND^APMH) was quantified as percent change in postdose BPND (BPND^AMPH) from baseline BPND (BPND^BL):
# Reduction in [^11C]-PHNO specific binding following a combination of Compound (I) and d-AMPH (ΔBPND^APMH+C1) was quantified as percent change in postdose BPND (BPND^AMPH+C1) from baseline BPND (BPND^BL):
# The effect of Compound (I) (ΔΔBPND) was quantified as the percent change BPND in ΔBPND^APMH+C1 compared to ΔBPND^APMH:
# All statistical comparisons were conducted using Student's t-tests for each ROI, using paired tests for within subject comparisons, and unpaired tests for between group comparisons.
# [1] = subjects of the 20 mg Compound (I) group
# [2] = subjects of the 40 mg Compound (I) group
structure (smiles),measurement,setting,value
"C[C@H](N)Cc1ccccc1 [d-AMPH, Dextroamphetamine, reference compound]",effect on [^11C]PHNO BPND,,significant reduction in BPND
same,effect on [^11C]PHNO BPND,listed as d-APMH,robust reduction of [^11C]PHNO BPND
same,"ΔBPND^AMPH Mean (SD), Ca",all subjects,15.6 (5.7) * %
same,"ΔBPND^AMPH Mean (SD), GP",all subjects,15.9 (7.7) * %
same,"ΔBPND^AMPH Mean (SD), Pu",all subjects,21.6 (5.1) * %
same,"ΔBPND^AMPH Mean (SD), SN",all subjects,27.8 (10.9) * %
same,"ΔBPND^AMPH Mean (SD), VSt",all subjects,26.5 (7.7) * %
same,"ΔBPND^AMPH Mean (SD), Ca",[1],17.8 (5.7) * %
same,"ΔBPND^AMPH Mean (SD), GP",[1],17.6 (1.5) * %
same,"ΔBPND^AMPH Mean (SD), Pu",[1],23.6 (4.6) * %
same,"ΔBPND^AMPH Mean (SD), SN",[1],28.4 (9.0) * %
same,"ΔBPND^AMPH Mean (SD), VSt",[1],25.4 (8.0) * %
same,"ΔBPND^AMPH Mean (SD), Ca",[2],13.4 (5.3) * %
same,"ΔBPND^AMPH Mean (SD), GP",[2],14.2 (11.1) * %
same,"ΔBPND^AMPH Mean (SD), Pu",[2],19.6 (5.3) * %
same,"ΔBPND^AMPH Mean (SD), SN",[2],27.2 (13.6) * %
same,"ΔBPND^AMPH Mean (SD), VSt",[2],27.6 (8.2) * %
